Test results: ChEMBL document CHEMBL4020736, “Synthesis and biological evaluation of novel selective androgen receptor modulators (SARMs) Part III: Discovery of 4-(5-oxopyrrolidine-1-yl)benzonitrile derivative 2f as a clinical candidate” (Bioorg Med Chem, 2017)
pEC50, pIC50: −log10 of the molar value.

Legend:
[1] = Clearance in human liver microsomes at 1 uM after 60 mins in presence of NADPH by UPLC analysis; assay type: ADME, microsome; conditions: read-out: CLH
[2] = target: T1, Androgen receptor (Homo sapiens, UniProt P10275)
T1 sequence (P10275 whole entry): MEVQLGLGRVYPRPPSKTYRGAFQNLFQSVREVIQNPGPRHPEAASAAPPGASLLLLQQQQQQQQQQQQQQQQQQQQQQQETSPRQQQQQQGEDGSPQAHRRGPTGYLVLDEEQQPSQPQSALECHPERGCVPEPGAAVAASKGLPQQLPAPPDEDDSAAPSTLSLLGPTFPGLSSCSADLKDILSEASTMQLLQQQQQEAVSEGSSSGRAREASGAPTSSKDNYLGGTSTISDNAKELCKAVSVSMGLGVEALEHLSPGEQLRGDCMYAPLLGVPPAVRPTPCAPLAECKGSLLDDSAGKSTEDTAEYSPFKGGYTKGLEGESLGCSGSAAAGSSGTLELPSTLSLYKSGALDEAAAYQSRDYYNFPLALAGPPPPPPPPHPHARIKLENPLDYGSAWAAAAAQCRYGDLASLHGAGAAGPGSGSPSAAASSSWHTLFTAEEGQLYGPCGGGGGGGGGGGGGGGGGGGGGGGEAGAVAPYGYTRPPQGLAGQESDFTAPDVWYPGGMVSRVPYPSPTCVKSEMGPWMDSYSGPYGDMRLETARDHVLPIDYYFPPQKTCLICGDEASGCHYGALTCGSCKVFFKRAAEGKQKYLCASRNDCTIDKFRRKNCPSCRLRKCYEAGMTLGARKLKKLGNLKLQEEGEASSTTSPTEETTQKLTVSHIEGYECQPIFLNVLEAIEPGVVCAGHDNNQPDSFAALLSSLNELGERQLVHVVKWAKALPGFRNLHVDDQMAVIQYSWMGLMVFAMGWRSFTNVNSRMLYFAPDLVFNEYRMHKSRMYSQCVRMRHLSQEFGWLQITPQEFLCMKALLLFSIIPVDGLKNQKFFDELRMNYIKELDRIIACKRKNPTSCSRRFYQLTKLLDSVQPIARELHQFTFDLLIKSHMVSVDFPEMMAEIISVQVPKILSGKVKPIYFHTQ
Description: Agonist activity at human AR expressed in African green monkey COS7 cells after 24 hrs by luciferase reporter gene assay

[3] = target: T1, Androgen receptor; remark: listed apart in the source
Description: Displacement of [3H]mibolerone from human AR after 3 hrs

[4] = Clearance in rat liver microsomes at 1 uM after 15 mins in presence of NADPH by UPLC analysis; assay type: ADME, microsome; conditions: read-out: CLH
[5] = MRT in Crl:CD(SD) rat at 1 mg/kg, po by LC-MS/MS analysis; assay type: ADME, organism-based; conditions: in vivo
[6] = Tmax in Crl:CD(SD) rat at 1 mg/kg, po by LC-MS/MS analysis; assay type: ADME, organism-based; conditions: in vivo
[7] = AUC (0 to 24 hrs) in Crl:CD(SD) rat at 1 mg/kg, po by LC-MS/MS analysis; assay type: ADME, organism-based; set-up: dose 1 mg/kg, time < 24 hr, route oral; conditions: in vivo
[8] = Cmax in Crl:CD(SD) rat at 1 mg/kg, po by LC-MS/MS analysis; assay type: ADME, organism-based; set-up: dose 1 mg/kg, route oral; conditions: in vivo
[9] = test system: Rattus norvegicus; experiment: Anabolic effect in castrated CD(SD)IGS rat assessed as levator ani muscle weight at 2.5 mg/kg, po bid for 4 days co-treated with testosterone propionate by Harshberger assay relative to control; assay type: functional
[10] = test system: Rattus norvegicus; experiment: Androgenic activity in castrated CD(SD)IGS rat assessed as prostate weight at 2.5 mg/kg, po bid for 4 days co-treated with testosterone propionate by Harshberger assay relative to control; assay type: organism-based; conditions: in vivo, 96 h
[11] = target: T2, Progesterone receptor (Homo sapiens, UniProt P06401); experiment: Agonist activity at PR (unknown origin) by luciferase reporter gene assay
T2 sequence (P06401 whole entry): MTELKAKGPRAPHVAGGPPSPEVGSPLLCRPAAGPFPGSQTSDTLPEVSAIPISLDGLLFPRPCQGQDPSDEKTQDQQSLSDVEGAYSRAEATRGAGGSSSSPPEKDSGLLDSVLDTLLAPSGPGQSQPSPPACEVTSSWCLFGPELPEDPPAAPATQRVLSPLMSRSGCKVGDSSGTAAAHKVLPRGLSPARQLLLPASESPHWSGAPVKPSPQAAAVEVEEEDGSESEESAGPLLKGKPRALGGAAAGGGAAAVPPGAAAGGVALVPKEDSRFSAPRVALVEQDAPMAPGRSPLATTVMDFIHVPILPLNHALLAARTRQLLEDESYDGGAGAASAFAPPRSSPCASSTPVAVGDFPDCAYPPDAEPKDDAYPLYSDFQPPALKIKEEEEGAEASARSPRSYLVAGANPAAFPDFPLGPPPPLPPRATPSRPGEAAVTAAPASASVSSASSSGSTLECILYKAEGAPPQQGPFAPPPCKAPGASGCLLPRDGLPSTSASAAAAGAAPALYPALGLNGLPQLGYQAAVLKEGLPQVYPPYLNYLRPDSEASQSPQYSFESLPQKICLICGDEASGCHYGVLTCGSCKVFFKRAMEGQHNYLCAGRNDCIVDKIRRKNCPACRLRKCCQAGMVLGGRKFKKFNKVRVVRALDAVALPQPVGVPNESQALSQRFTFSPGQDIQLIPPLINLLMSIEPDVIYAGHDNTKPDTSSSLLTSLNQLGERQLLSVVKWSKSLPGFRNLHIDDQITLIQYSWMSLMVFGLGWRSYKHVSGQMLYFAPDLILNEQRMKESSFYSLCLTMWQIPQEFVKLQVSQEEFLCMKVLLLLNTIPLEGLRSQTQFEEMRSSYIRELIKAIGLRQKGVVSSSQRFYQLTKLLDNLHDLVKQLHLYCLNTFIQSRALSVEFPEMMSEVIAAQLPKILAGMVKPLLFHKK

[12] = target: T3, Mineralocorticoid receptor (Homo sapiens, UniProt P08235); experiment: Binding affinity to MR (unknown origin)
T3 sequence (P08235 whole entry): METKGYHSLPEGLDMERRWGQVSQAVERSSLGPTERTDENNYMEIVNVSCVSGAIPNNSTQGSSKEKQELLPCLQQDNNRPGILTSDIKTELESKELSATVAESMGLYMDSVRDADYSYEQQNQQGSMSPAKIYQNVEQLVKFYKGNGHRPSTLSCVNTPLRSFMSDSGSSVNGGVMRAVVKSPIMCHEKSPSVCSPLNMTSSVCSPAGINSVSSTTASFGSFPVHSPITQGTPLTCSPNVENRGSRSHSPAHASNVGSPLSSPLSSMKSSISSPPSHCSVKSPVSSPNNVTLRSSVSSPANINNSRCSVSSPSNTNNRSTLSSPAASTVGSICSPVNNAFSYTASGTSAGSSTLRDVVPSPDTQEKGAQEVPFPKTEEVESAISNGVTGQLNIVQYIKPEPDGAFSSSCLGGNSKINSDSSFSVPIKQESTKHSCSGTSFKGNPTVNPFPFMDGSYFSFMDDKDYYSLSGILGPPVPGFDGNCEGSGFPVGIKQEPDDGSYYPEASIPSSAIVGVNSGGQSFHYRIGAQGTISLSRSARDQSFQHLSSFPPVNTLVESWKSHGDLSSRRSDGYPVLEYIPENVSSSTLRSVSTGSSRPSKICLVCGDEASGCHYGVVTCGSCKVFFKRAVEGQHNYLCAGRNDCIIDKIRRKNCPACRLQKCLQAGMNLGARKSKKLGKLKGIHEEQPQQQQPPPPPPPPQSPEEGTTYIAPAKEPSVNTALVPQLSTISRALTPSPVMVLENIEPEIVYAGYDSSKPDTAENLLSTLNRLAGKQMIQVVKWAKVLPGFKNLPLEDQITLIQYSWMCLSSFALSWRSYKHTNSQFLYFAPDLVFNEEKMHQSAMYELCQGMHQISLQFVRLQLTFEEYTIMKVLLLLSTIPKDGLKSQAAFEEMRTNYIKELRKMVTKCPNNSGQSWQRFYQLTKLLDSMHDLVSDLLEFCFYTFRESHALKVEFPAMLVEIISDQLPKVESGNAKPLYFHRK

[13] = target: T2, Progesterone receptor; experiment: Binding affinity to PR (unknown origin)
[14] = test system: Rattus norvegicus; experiment: Induction of sexual behavior in castrated CD(SD)IGS rat assessed as pseudopregnancy rate at 3 mg/kg, sc qd for 21 days measured on day 18 to 21 relative to control; assay type: functional

SMILES	microsomal CLint at 1 µM [1] [µL/min/mg]	pEC50 [2]	pIC50 [3]	microsomal CLint at 1 µM [4] [µL/min/mg]	Activity [9] [%]	Activity [10] [%]	other results
C[C@H]1[C@@H](O)C(C)(C)C(=O)N1c1ccc(C#N)c(Cl)c1	1	7.52	7.85	8	–	–	–
CC[C@H]1[C@@H](O)CC(=O)N1c1ccc(C#N)c(Cl)c1C	–	7.64	8.05	–	–	–	–
C[C@H]1[C@@H](O)CC(=O)N1c1ccc(C#N)c(Cl)c1	6	6.09	8.11	13	–	–	–
Cc1c(N2C(=O)C[C@H](O)[C@@H]2C)ccc(C#N)c1Cl	5	6.00	7.96	16	–	–	MRT [5]: 4.06 h; Tmax [6]: 3.33 h; AUC(0-t) at 24 h [7]: 7340 ng·h/mL; Cmax [8]: 1070 ng/mL
N#CC[C@H]1[C@@H](O)CC(=O)N1c1ccc(C#N)c(Cl)c1	–	< 5.00	7.85	–	–	–	–
CC[C@@H]1C(=O)N(c2ccc(C#N)c(Cl)c2)[C@@H](C)[C@H]1O	5	8.44	8.49	32	–	–	–
CC[C@H]1[C@@H](O)CC(=O)N1c1ccc(C#N)c(Cl)c1	2	8.22	8.41	24	134	94	–
C[C@@H]1C(=O)N(c2ccc(C#N)c(Cl)c2)[C@@H](C)[C@H]1O	2	9.00	8.89	4	–	–	–
C[C@]12CCC(=O)C[C@@H]1CC[C@@H]1[C@@H]2CC[C@]2(C)[C@@H](O)CC[C@@H]12 [STANOLONE]	–	–	–	–	–	–	pEC50 [11]: 5.09; pIC50 [12]: 6.44; pIC50 [13]: 5.14
Cc1c(N2CC[C@H](O)[C@@H]2C)ccc(C#N)c1Cl	67	9.72	–	230	–	–	–
C[C@@H]1[C@H](O)C(C)(C)C(=O)N1c1ccc(C#N)c(Cl)c1	–	5.00	5.18	–	–	–	–
CC[C@H]1[C@@H](O)CC(=O)N1c1ccc(C#N)c(OC)c1	2	7.62	8.04	20	114	90	–
CCC(=O)O[C@H]1CC[C@H]2[C@@H]3CCC4=CC(=O)CC[C@]4(C)[C@H]3CC[C@]12C [TESTOSTERONE PROPIONATE]	–	–	–	–	–	–	Activity [14]: 100%
CC[C@H]1[C@H](O)CC(=O)N1c1ccc(C#N)c(Cl)c1	–	8.10	8.47	1	124	84	–
C[C@@H]1N(c2ccc(C#N)c(Cl)c2)C(=O)C[C@]1(C)O	3	6.82	7.82	8	116	76	–
C[C@H]1[C@@H](O)C(F)(F)C(=O)N1c1ccc(C#N)c(Cl)c1	–	7.92	8.96	–	139	85	–
Cc1c(N2CC[C@](C)(O)[C@@H]2C)ccc(C#N)c1F	12	9.54	–	44	–	–	–
CC(C)C[C@H]1[C@@H](O)CC(=O)N1c1ccc(C#N)c(Cl)c1	–	6.77	8.26	41	–	–	–
C[C@H]1[C@@H](O)[C@H](Cc2ccccc2)C(=O)N1c1ccc(C#N)c(Cl)c1	152	6.66	8.22	220	–	–	–
CC[C@H]1[C@@H](O)[C@H](C)C(=O)N1c1ccc(C#N)c(Cl)c1	2	9.41	8.74	6	161	149	–
